In patent publication US6355799B1, “Substituted benzene compounds, process for their preparation, and herbicidal and defoliant compositions containing them” (ISK Americas Incorporated, priority 1997, dated 2002):

How the values were obtained:
Assay type in all cases: in vivo
[1] = test system: redroot pigweed (Amaranthus retroflexus, AMARE); test: Pre-emerge test, greenhouse herbicide activity screening; details: rating scale 0-100, 14 days after application
Method in brief: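 Compounds in acetone were track-sprayed at 15-1000 g ai/ha (187 l/ha) on sandy loam pots: pre-emerge one day after seeding, post-emerge at 2-3 leaf stage with 0.25% v/v non-ionic surfactant. Phytotoxicity was rated 14 days later on a 0 (no damage) to 100 (complete death) scale.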

[2] = test system: field corn (Zea mays L., var. Dekalb 535, CORN); test: Pre-emerge test, crop safety; details: rating scale 0-100, 14 days after application
Method in brief: (§1)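 Plants grown in 10 cm pots of sandy loam mix received acetone-dissolved compounds through a moving flat-fan nozzle. Doses ranged from 15 to 1000 g ai/ha. Pre-emerge pots were seeded one day earlier, post-emerge pots 8–21 days earlier. Fourteen days on, each pot was graded 0–100 for damage.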

[3] = test system: upland rice (Oryza sp., var. Tebonnet, RICE); test: Pre-emerge test, crop safety; details: rating scale 0-100, 14 days after application
Method in brief: as §1

[4] = test system: common ragweed (Ambrosia artemisizfolia L., AMBEL); test: Pre-emerge test, greenhouse herbicide activity screening; details: rating scale 0-100, 14 days after application
Method in brief: (§2)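 Compounds in acetone were track-sprayed at 15–1000 g ai/ha: pre-emergence onto soil sown the previous day, then top-watered to incorporate and later bottom-watered; post-emergence onto 2–3 leaf plants with 0.25% v/v surfactant, bottom-watered only. Ratings on a 0–100 phytotoxicity scale were taken at day 14.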

[5] = test system: lambsquarters (Chenopodium album, CHEAL); test: as above; details: rating scale 0-100, 14 days after application
Method in brief: as §2

[6] = test system: velvetleaf (Abutilon theophrasti, ABUTH); test: as above; details: rating scale 0-100, 14 days after application
Method in brief: as §2

[7] = test system: large crabgrass (Digitaria sanguinalis, DIGSA); test: as above; details: rating scale 0-100, 14 days after application
Method in brief: as §2

[8] = test system: green foxtail (Setaria viridis, SETVI); test: as above; details: rating scale 0-100, 14 days after application
Method in brief: as §2

[9] = test system: barnyardgrass (Echinochloa crus-galli, ECHCG); test: as above; details: rating scale 0-100, 14 days after application
Method in brief: as §2

[10] = test system: sicklepod (Cassia obtusifolia, CASOB); test: as above; details: rating scale 0-100, 14 days after application
Method in brief: as §2

[11] = test system: ivyleaf morningglory (Ipomoea hederacea, IPOHE); test: as above; details: rating scale 0-100, 14 days after application
Method in brief: as §2

[12] = test system: johnsongrass (Sorghum halepense, SORHA); test: as above; details: rating scale 0-100, 14 days after application
Method in brief: as §2

[13] = test system: field corn (Zea mays L., var. Dekalb 535, CORN); test: Post-emerge test, crop safety; details: rating scale 0-100 (0 no damage, 100 complete death), 14 days after application
Method in brief: (§3)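 Rating: 0–100 visual injury, 14 DAA. Application: acetone, 187 l/ha, 15–1000 g ai/ha, flat-fan track sprayer with nozzle 40–45 cm above soil or canopy. Post-emerge runs used 0.25% v/v surfactant on 2–3 leaf plants.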

[14] = test system: upland rice (Oryza sp., var. Tebonnet, RICE); test: Post-emerge test, crop safety; details: rating scale 0-100 (0 no damage, 100 complete death), 14 days after application
Method in brief: as §3

[15] = test system: redroot pigweed (Amaranthus retroflexus, AMARE); test: Post-emerge test, greenhouse herbicide activity screening; details: rating scale 0-100 (0 no damage, 100 complete death), 14 days after application
Method in brief: (§4)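 Fourteen days after spraying, crop and weed injury was graded visually from 0, no effect, to 100, every plant dead. Test substances were dissolved in acetone and applied at 15–1000 g ai/ha with a flat-fan nozzle. Application was either pre-emergence, one day after sowing, or post-emergence at the 2–3 leaf stage.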

[16] = test system: lambsquarters (Chenopodium album, CHEAL); test: as above; details: rating scale 0-100 (0 no damage, 100 complete death), 14 days after application
Method in brief: as §4

[17] = test system: velvetleaf (Abutilon theophrasti, ABUTH); test: as above; details: rating scale 0-100 (0 no damage, 100 complete death), 14 days after application
Method in brief: as §4

[18] = test system: large crabgrass (Digitaria sanguinalis, DIGSA); test: as above; details: rating scale 0-100 (0 no damage, 100 complete death), 14 days after application
Method in brief: as §4

[19] = test system: green foxtail (Setaria viridis, SETVI); test: as above; details: rating scale 0-100 (0 no damage, 100 complete death), 14 days after application
Method in brief: as §4

[20] = test system: barnyardgrass (Echinochloa crus-galli, ECHCG); test: as above; details: rating scale 0-100 (0 no damage, 100 complete death), 14 days after application
Method in brief: as §4

[21] = test system: sicklepod (Cassia obtusifolia, CASOB); test: as above; details: rating scale 0-100 (0 no damage, 100 complete death), 14 days after application
Method in brief: as §4

[22] = test system: ivyleaf morningglory (Ipomoea hederacea, IPOHE); test: as above; details: rating scale 0-100 (0 no damage, 100 complete death), 14 days after application
Method in brief: as §4

[23] = test system: johnsongrass (Sorghum halepense, SORHA); test: as above; details: rating scale 0-100 (0 no damage, 100 complete death), 14 days after application
Method in brief: as §4

## CCOC(=O)CCc1c(OC)c(Cl)cc(F)c1-n1c(=O)cc(C(F)(F)F)n(C)c1=O [14-1]
[1]; 63 g ai/ha
  Pre-emerge herbicidal activity, phytotoxicity rating AMARE: 100
[1]; 250 g ai/ha
  Pre-emerge herbicidal activity, phytotoxicity rating AMARE: 100
[2]; 63 g ai/ha
  Pre-emerge phytotoxicity rating, crop damage CORN: 0
[2]; 250 g ai/ha
  Pre-emerge phytotoxicity rating, crop damage CORN: 10
[3]; 63 g ai/ha
  Pre-emerge phytotoxicity rating, crop damage RICE: 15
[3]; 250 g ai/ha
  Pre-emerge phytotoxicity rating, crop damage RICE: 45
[4]; 63 g ai/ha
  Pre-emerge herbicidal activity, phytotoxicity rating AMBEL: 0
[4]; 250 g ai/ha
  Pre-emerge herbicidal activity, phytotoxicity rating AMBEL: 0
[5]; 63 g ai/ha
  Pre-emerge herbicidal activity, phytotoxicity rating CHEAL: 98
[5]; 250 g ai/ha
  Pre-emerge herbicidal activity, phytotoxicity rating CHEAL: 100
[6]; 63 g ai/ha
  Pre-emerge herbicidal activity, phytotoxicity rating ABUTH: 75
[6]; 250 g ai/ha
  Pre-emerge herbicidal activity, phytotoxicity rating ABUTH: 100
[7]; 63 g ai/ha
  Pre-emerge herbicidal activity, phytotoxicity rating DIGSA: 40
[7]; 250 g ai/ha
  Pre-emerge herbicidal activity, phytotoxicity rating DIGSA: 85
[8]; 63 g ai/ha
  Pre-emerge herbicidal activity, phytotoxicity rating SETVI: 15
[8]; 250 g ai/ha
  Pre-emerge herbicidal activity, phytotoxicity rating SETVI: 55
[9]; 63 g ai/ha
  Pre-emerge herbicidal activity, phytotoxicity rating ECHCG: 15
[9]; 250 g ai/ha
  Pre-emerge herbicidal activity, phytotoxicity rating ECHCG: 30
[10]; 63 g ai/ha
  Pre-emerge herbicidal activity, phytotoxicity rating CASOB: 0
[10]; 250 g ai/ha
  Pre-emerge herbicidal activity, phytotoxicity rating CASOB: 0
[11]; 63 g ai/ha
  Pre-emerge herbicidal activity, phytotoxicity rating IPOHE: 30
[11]; 250 g ai/ha
  Pre-emerge herbicidal activity, phytotoxicity rating IPOHE: 75
[12]; 63 g ai/ha
  Pre-emerge herbicidal activity, phytotoxicity rating SORHA: 0
[12]; 250 g ai/ha
  Pre-emerge herbicidal activity, phytotoxicity rating SORHA: 90
[13]; Rate 63 g ai/ha
  Post-emerge phytotoxicity rating CORN (crop damage): 85
[13]; Rate 250 g ai/ha
  Post-emerge phytotoxicity rating CORN (crop damage): 100
[14]; Rate 63 g ai/ha
  Post-emerge phytotoxicity rating RICE (crop damage): 40
[14]; Rate 250 g ai/ha
  Post-emerge phytotoxicity rating RICE (crop damage): 80
[15]; Rate 63 g ai/ha
  Post-emerge Herbicidal Activity, phytotoxicity rating AMARE: 100
[15]; Rate 250 g ai/ha
  Post-emerge Herbicidal Activity, phytotoxicity rating AMARE: 100
[16]; Rate 63 g ai/ha
  Post-emerge Herbicidal Activity, phytotoxicity rating CHEAL: 80
[16]; Rate 250 g ai/ha
  Post-emerge Herbicidal Activity, phytotoxicity rating CHEAL: 98
[17]; Rate 63 g ai/ha
  Post-emerge Herbicidal Activity, phytotoxicity rating ABUTH: 85
[17]; Rate 250 g ai/ha
  Post-emerge Herbicidal Activity, phytotoxicity rating ABUTH: 98
[18]; Rate 63 g ai/ha
  Post-emerge Herbicidal Activity, phytotoxicity rating DIGSA: 80
[18]; Rate 250 g ai/ha
  Post-emerge Herbicidal Activity, phytotoxicity rating DIGSA: 95
[19]; Rate 63 g ai/ha
  Post-emerge Herbicidal Activity, phytotoxicity rating SETVI: 40
[19]; Rate 250 g ai/ha
  Post-emerge Herbicidal Activity, phytotoxicity rating SETVI: 70
[20]; Rate 63 g ai/ha
  Post-emerge Herbicidal Activity, phytotoxicity rating ECHCG: 85
[20]; Rate 250 g ai/ha
  Post-emerge Herbicidal Activity, phytotoxicity rating ECHCG: 95
[21]; Rate 63 g ai/ha
  Post-emerge Herbicidal Activity, phytotoxicity rating CASOB: 55
[21]; Rate 250 g ai/ha
  Post-emerge Herbicidal Activity, phytotoxicity rating CASOB: 70
[22]; Rate 63 g ai/ha
  Post-emerge Herbicidal Activity, phytotoxicity rating IPOHE: 85
[22]; Rate 250 g ai/ha
  Post-emerge Herbicidal Activity, phytotoxicity rating IPOHE: 100
[23]; Rate 63 g ai/ha
  Post-emerge Herbicidal Activity, phytotoxicity rating SORHA: 25
[23]; Rate 250 g ai/ha
  Post-emerge Herbicidal Activity, phytotoxicity rating SORHA: 75
